Experimental data published in ChEMBL document CHEMBL4359819, “Exploiting the 1-(4-fluorobenzyl)piperazine fragment for the development of novel tyrosinase inhibitors as anti-melanogenic agents: Design, synthesis, structural insights and biological profile” (Eur J Med Chem, 2019).
Calls of active or inactive are those of the source. The calls are words filed in the database; no cut-off is given here.

What follows are compounds tested against T1, Tyrosinase (Agaricus bisporus) (UniProt O42713) (assay: Potency index, ratio of kojic acid IC50 to compound IC50 for inhibition of mushroom tyrosinase using L-DOPA as substrate). Conditions: not given.
T1 sequence (whole entry): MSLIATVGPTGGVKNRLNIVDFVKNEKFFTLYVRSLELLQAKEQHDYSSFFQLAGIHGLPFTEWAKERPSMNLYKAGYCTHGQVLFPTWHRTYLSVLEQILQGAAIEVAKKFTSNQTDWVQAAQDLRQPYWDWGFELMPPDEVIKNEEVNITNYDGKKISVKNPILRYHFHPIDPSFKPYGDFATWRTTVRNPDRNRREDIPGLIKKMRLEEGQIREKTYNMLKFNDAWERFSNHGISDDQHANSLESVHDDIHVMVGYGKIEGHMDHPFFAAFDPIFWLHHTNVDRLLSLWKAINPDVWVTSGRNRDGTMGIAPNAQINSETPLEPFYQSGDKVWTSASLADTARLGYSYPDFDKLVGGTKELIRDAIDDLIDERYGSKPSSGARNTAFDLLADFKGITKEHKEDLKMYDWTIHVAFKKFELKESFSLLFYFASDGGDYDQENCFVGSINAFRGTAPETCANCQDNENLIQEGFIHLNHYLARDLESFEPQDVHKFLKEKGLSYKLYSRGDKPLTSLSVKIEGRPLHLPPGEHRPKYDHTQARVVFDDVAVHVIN
Work on O=C(c1ccc([N+](=O)[O-])cc1[N+](=O)[O-])N1CCN(Cc2ccc(F)cc2)CC1 yielded a Ratio IC50 of 20.

Each compound was assayed on B16-F10 (assay: Inhibition of alpha-MSH-stimulated melanogenesis in mouse B16F10 cells assessed as melanin content at 10 uM measured after 48 hrs relative to control). Conditions: B16-F10, 48 h.
Type: functional
Work on O=C(c1ccc([N+](=O)[O-])cc1[N+](=O)[O-])N1CCN(Cc2ccc(F)cc2)CC1 yielded an inhibition at 10 µM of 22.8%.

Each compound was assayed against T2, Tyrosinase (Agaricus bisporus, UniProt O42713) (assay: Inhibition of mushroom tyrosinase assessed as reduction in dopachrome production using L-DOPA as substrate after 5 mins by spectrophotometric analysis). Conditions: not given.
T2 sequence (O42713 whole entry): T1 sequence (whole entry)
For O=C(c1cccc(Br)c1)N1CCN(Cc2ccc(F)cc2)CC1, the IC50 was 2400 nM. Compound O=C(c1ccccc1[N+](=O)[O-])N1CCN(Cc2ccc(F)cc2)CC1 has an IC50 of 870 nM. Nc1ccccc1C(=O)N1CCN(Cc2ccc(F)cc2)CC1 showed an IC50 of 10900 nM. O=C(c1ccccc1Br)N1CCN(Cc2ccc(F)cc2)CC1 gave an IC50 of 2030 nM. O=C(c1cccc(Cl)c1)N1CCN(Cc2ccc(F)cc2)CC1 gave an IC50 of 5300 nM. COc1ccc(C(=O)N2CCN(Cc3ccc(F)cc3)CC2)c(OC)c1 was tested, and the IC50 was 1400 nM. With Nc1ccc(C(=O)N2CCN(Cc3ccc(F)cc3)CC2)c(N)c1 the IC50 was 3670 nM. With O=C(c1ccc(C(F)(F)F)cc1)N1CCN(Cc2ccc(F)cc2)CC1 the IC50 was 3380 nM. With O=C(c1cccc(C(F)(F)F)c1)N1CCN(Cc2ccc(F)cc2)CC1 the IC50 was 8430 nM. Work on Cc1ccc(C(=O)N2CCN(Cc3ccc(F)cc3)CC2)c(C)c1 yielded an IC50 of 3430 nM. O=C(c1ccc(F)cc1F)N1CCN(Cc2ccc(F)cc2)CC1 showed an IC50 of 1910 nM. Work on O=C(c1ccc([N+](=O)[O-])cc1[N+](=O)[O-])N1CCN(Cc2ccc(F)cc2)CC1 yielded an IC50 of 960 nM. O=C(c1ccc(Br)cc1)N1CCN(Cc2ccc(F)cc2)CC1 gave an IC50 of 4610 nM. Compound O=C(c1ccc(Cl)cc1Cl)N1CCN(Cc2ccc(F)cc2)CC1 has an IC50 of 790 nM. In the case of Nc1ccc(C(=O)N2CCN(Cc3ccc(F)cc3)CC2)cc1, the IC50 is reported as 14700 nM. Compound O=C(c1ccccc1Cl)N1CCN(Cc2ccc(F)cc2)CC1 has an IC50 of 3120 nM. O=C(c1cccc([N+](=O)[O-])c1)N1CCN(Cc2ccc(F)cc2)CC1 was tested, and the IC50 was 3600 nM. In the case of O=C(c1ccc(Cl)cc1)N1CCN(Cc2ccc(F)cc2)CC1, the IC50 is reported as 3510 nM. In the case of Nc1cccc(C(=O)N2CCN(Cc3ccc(F)cc3)CC2)c1, the IC50 is reported as 3810 nM. O=C(c1ccc(C(F)(F)F)cc1C(F)(F)F)N1CCN(Cc2ccc(F)cc2)CC1 showed an IC50 of 1630 nM. With O=C(c1ccc([N+](=O)[O-])cc1)N1CCN(Cc2ccc(F)cc2)CC1 the IC50 was 2050 nM. O=C(c1ccccc1C(F)(F)F)N1CCN(Cc2ccc(F)cc2)CC1 gave an IC50 of 480 nM. O=C(c1ccc(Br)cc1Br)N1CCN(Cc2ccc(F)cc2)CC1 gave an IC50 of 1050 nM. With O=C(c1ccc(O)cc1O)N1CCN(Cc2ccc(F)cc2)CC1 the IC50 was 1490 nM.

These compounds were tested against T1, Tyrosinase (Agaricus bisporus) (assay: Competitive inhibition of mushroom tyrosinase assessed as increase in Km for substrate at 0.48 to 1.92 uM using varying levels of L-DOPA as substrate by Lineweaver-Burk plot analysis). Conditions: not given.
O=C(c1ccc([N+](=O)[O-])cc1[N+](=O)[O-])N1CCN(Cc2ccc(F)cc2)CC1 was tested, and the inhibition was “Active”.

What follows are compounds tested against T1, Tyrosinase (Agaricus bisporus) (assay: Competitive inhibition of mushroom tyrosinase assessed as Vmax for substrate at 0.48 to 1.92 uM using varying levels of L-DOPA as substrate by Lineweaver-Burk plot analysis). Conditions: not given.
With O=C(c1ccc([N+](=O)[O-])cc1[N+](=O)[O-])N1CCN(Cc2ccc(F)cc2)CC1 the inhibition was “Active”.
